Patent US6635771B2, “N-benzhydryl indole compounds” (Wyeth, priority 2001, dated 2003)

What follows are compounds tested against T1, cPLA2 (Homo sapiens, UniProt P47712) (assay: Coumarine Assay). Conditions: 60 μM 7-hydroxycoumarinyl 6-heptenoate substrate, 4 μg cPLA2, pH 7.5, fluorescence ex 360 nm / em 460 nm; read-out: Coumarin IC50.
T1 sequence (P47712 1-749): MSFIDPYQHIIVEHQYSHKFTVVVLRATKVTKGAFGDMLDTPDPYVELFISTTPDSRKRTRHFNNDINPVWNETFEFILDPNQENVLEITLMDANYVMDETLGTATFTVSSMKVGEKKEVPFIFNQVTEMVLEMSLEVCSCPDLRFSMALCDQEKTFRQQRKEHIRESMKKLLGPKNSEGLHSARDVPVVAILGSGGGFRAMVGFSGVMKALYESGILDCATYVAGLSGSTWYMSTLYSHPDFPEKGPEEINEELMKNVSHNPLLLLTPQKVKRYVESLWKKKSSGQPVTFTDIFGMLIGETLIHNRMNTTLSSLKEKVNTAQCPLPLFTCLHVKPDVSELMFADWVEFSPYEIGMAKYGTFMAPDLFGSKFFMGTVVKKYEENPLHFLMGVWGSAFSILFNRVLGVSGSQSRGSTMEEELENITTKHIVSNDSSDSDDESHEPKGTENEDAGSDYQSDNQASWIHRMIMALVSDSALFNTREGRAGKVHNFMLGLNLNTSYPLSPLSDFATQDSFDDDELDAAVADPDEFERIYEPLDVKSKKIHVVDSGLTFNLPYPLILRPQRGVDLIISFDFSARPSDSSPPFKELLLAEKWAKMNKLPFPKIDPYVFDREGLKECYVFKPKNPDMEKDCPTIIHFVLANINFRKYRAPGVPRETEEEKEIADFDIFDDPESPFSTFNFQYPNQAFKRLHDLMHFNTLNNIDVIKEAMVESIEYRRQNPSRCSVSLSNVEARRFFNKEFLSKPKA
Format: biochemical
Method: Inhibitors were mixed with 200 μL assay buffer (80 mM Heped, pH 7.5, 1 mM EDTA) containing 60 μM 7-hydroxycoumarinyl 6-heptenoate. The reaction was initiated by adding 4 μg cPLA2 in 50 μL assay buffer. Hydrolysis of the 7-hydroxycounarimyl 6-heptenoate ester was monitored in a fluorometer by exciting at 360 nm and monitoring emission at 460 nm. Enzyme activity is proportional to the increase in emission at 460 nm per minute. In the presence of a cPLA2 inhibitor, the rate of increase is less.
For `O=C(O)c1ccc(OCCc2c(CCNS(=O)(=O)CCN3CCC(O)C3)n(C(c3ccccc3)c3ccccc3)c3ccc(Cl)cc23)cc1` (stereo not drawn) [Example 122, 4-[2-(1-benzhydryl-5-chloro-2-{2-[2-(3-hydroxy-pyrrolidine-1-yl)-ethanesulfonylamino]-ethyl}-1H-indol-3-yl)-ethoxy]-benzoic acid], the IC50 was 2500 nM. Compound `CS(=O)(=O)CS(=O)(=O)NCCc1c(CCOc2ccc(C(=O)O)cc2)c2cc(Cl)ccc2n1C(c1ccccc1)c1ccccc1` [Example 7, 4-(2-(1-Benzhydryl-5-chloro-2-[2-({[(methylsulfonyl)methyl]sulfonyl}amino)ethyl]-1H-indol-3-yl}ethoxy)benzoic acid] has an IC50 of 550 nM. With `O=C(O)c1ccc(CCCc2c(CCNS(=O)(=O)Cc3cccc(Cl)c3)n(C(c3ccccc3)c3ccccc3)c3ccc(Cl)cc23)cc1` [Example 66, 4-{3-[1-benzhydryl-5chloro-2-(2{[(3-chlorobenzyl)sulfonyl]amino}ethyl)-1H-indol-3-yl]propyl}benzoic acid] the IC50 was 150 nM. `O=C(O)c1ccc(OCCc2c(CCNS(=O)(=O)c3ccccc3C(=O)O)n(C(c3ccccc3)c3ccccc3)c3ccc(Cl)cc23)cc1` [Example 25, 2-{[(2-{1-benzhydryl-3-[2-(4-carboxyphenoxy)ethyl]-5-chloro-1H-indol-2-yl}ethyl)amino]sulfonyl}benzoic acid] gave an IC50 of 3400 nM. In the case of `O=C(O)c1ccc(CCCc2c(CCNS(=O)(=O)Cc3cc(Cl)ccc3Cl)n(C(c3ccccc3)c3ccccc3)c3ccc(Cl)cc23)cc1` [Example 67, 4-{3-[1-benzhydryl-5-chloro-2-(2-{[(2,5-dichlorobenzyl)sulfonyl]amino}ethyl)-1H-indol-3-yl]propyl}benzoic acid], the IC50 is reported as 140 nM. For `Cc1cnn(CCS(=O)(=O)NCCc2c(CCOc3ccc(C(=O)O)cc3)c3cc(Cl)ccc3n2C(c2ccccc2)c2ccccc2)c1` [Example 95, 4-(2-{1-benzhydryl-5-chloro-2-[2-({[2-(4-methyl-1H-pyrazol-1-yl)ethyl]sulfonyl}amino)ethyl]-1H-indol-3-yl}ethoxy)benzoic acid], the IC50 was 850 nM. `Cc1cccc(C)c1CS(=O)(=O)NCCc1c(CCCc2ccc(C(=O)O)cc2)c2cc(Cl)ccc2n1C(c1ccccc1)c1ccccc1` [Example 52, 4-{3-[1-benzhydryl-5-chloro-2-(2-{[(2,6-dimethylbenzyl)sulfonyl]amino}ethyl)-1H-indoly-3-yl]propyl}benzoic acid] showed an IC50 of 130 nM. Work on `O=C(O)c1ccc(OCCc2c(CCNS(=O)(=O)CSc3ccccc3)n(C(c3ccccc3)c3ccccc3)c3ccc(Cl)cc23)cc1` [Example 81, 4-(2-{1-benzhydryl-5-chloro-2-[2-({[(phenylsulfanyl)methyl]sulfonyl}amino)ethyl]-1H-indol-3-yl}ethoxy)benzoic acid] yielded an IC50 of 470 nM. Compound `O=C(O)c1ccc(OCCc2c(CCNS(=O)(=O)c3cc(Cl)cc(Cl)c3)n(C(c3ccccc3)c3ccccc3)c3ccc(Cl)cc23)cc1` [Example 27, 4-{2-[1-benzhydryl-5-chloro-2-(2-{[(3,5-dichlorophenyl)sulfonyl]amino}ethyl)-1H-indol-3-yl]ethoxy}benzoic acid] has an IC50 of 800 nM. Compound `O=C(O)c1ccc(OCCc2c(CCNS(=O)(=O)CCc3cccc4ccccc34)n(C(c3ccccc3)c3ccccc3)c3ccc(Cl)cc23)cc1` [Example 8] has an IC50 of 2000 nM. Work on `O=C(O)c1ccc(CCCc2c(CCNS(=O)(=O)Cc3ccccn3)n(C(c3ccccc3)c3ccccc3)c3ccc(Cl)cc23)cc1` [Example 61, 4-{3-[1-benzhydryl-5-chloro-2-(2-{[(2-pyridinylmethyl)sulfonyl]amino}ethyl)-1H-indol-3-yl]propyl}benzoic acid] yielded an IC50 of 340 nM. Compound `O=C(O)c1ccc(OCCc2c(CCNS(=O)(=O)Cc3ccc(Cl)c(Cl)c3)n(C(c3ccccc3)c3ccccc3)c3cc(Cl)ccc23)cc1` [Example 106, 4-(2-{1 -Benzhydryl-6-chloro-2-[2-(3,4-dichloro-phenylmethanesulfonylamino)-ethyl]-1H-indol-3-yl}-ethoxy)-benzoic acid] has an IC50 of 220 nM.
